The record followed here is article PMC13083723 (Patterns, 2026).

Molecules are shown by their SMILES.

The test concerns Vero-E6 cells. As to the kind of experiment: cells. The conditions noted are these: Chlorocebus sabaeus, Vero C1008, 24 h, read-out: PL_Result. Format: cell-based.
For `CCc1ccc2c(-c3cccc(Cl)c3)nc(=O)n(CC)c2n1` [SPE_K12932420], the activation at 10 µM came to 0.000931%.
`Cc1c(Cl)cccc1S(=O)(=O)Nc1nc(NCCc2ccccc2)nc2c1CN(Cc1ccccc1)CC2` [SPE_K35772771]: the activation at 10 µM was -25%.
Take `CCOC(=O)Nc1ccc2c(c1)N(C(=O)CN(CC)CC)c1ccccc1CC2` [SPE_K24570280]: the activation at 10 µM came out at 3.49%.
For the compound `CN(C(=O)c1ccc(F)cc1C(F)(F)F)C1CCN(c2nnc(-c3ccnn3C)c3ccccc23)CC1` [SPE_K50498985], the activation at 10 µM is -8%.
The figure for `C[C@@H](C1=C(CCN(C)C)Cc2ccccc21)c1ccccn1` [SPE_K83192048] is 11.3%; for `NNC(=O)c1ccncc1` [SPE_K87202646] it is 0.348%.
The figure for `O=C(NCC(=O)N1CCCC1)Nc1ccc2cnccc2c1` [SPE_K86718786] is -0.0855%; for `COc1c(O)cc2c(c1O)[C@@H]1O[C@H](CO)[C@@H](O)[C@H](O)[C@H]1OC2=O` [SPE_K04176066] it is 1.1%.
Then `CCCN(CCC)C(=O)Cc1c(-c2ccc(Cl)cc2)nc2ccc(Cl)cn12` [SPE_K66896751], with -0.969%.
Consider `Cc1[nH]c2ccc(F)cc2c1-c1nc2c3cccnc3c3ncccc3c2[nH]1` [SPE_K68003372], for which the activation at 10 µM is -0.56%.
The figure for `CC(=O)C1(N)Cc2c(O)c3c(c(O)c2[C@@H](O[C@H]2C[C@H](O)[C@H](O)CO2)C1)C(=O)c1ccccc1C3=O` (stereo partly shown) [SPE_K13843533] is 6.95%; for `O=c1n(CCCN2CCN(c3cccc(Cl)c3)CC2)nc2ccccn12` [SPE_K70778732] it is -8.41%.
For the compound `CCCCOc1nc(N)c2c(n1)N(Cc1cccc(CN3CCCC3)c1)CC(=O)N2` [SPE_K73585091], the activation at 10 µM is -10.5%.
Regarding `O=S(=O)(Cc1ccccc1)Nc1ccc(-c2ccc3c(cnn3-c3ccc(F)cc3)c2)c(C(F)(F)F)c1` [SPE_K29328421], the activation at 10 µM was -4.77%.
For `Cc1ccc(-n2sc(=O)n(Cc3ccc(F)cc3)c2=O)cc1` [SPE_K08893438], the activation at 10 µM stood at 8.86%.
As for `COC(F)(F)C(Cl)Cl` [SPE_K06152156], the activation at 10 µM was -2.25%.
The figure for `CNC(=O)[C@H]1O[C@@H](n2cnc3c(NCc4cccc(I)c4)nc(Cl)nc32)[C@H](O)[C@@H]1O` [SPE_K52396582] is -2.9%; for `CCN(CC)C(=O)N1CCN(C)CC1` [SPE_K45542189] it is 3.18%.
Turning to `C[C@H](CCC(=O)NCCS(=O)(=O)O)[C@H]1CC[C@H]2[C@@H]3[C@@H](O)C[C@@H]4C[C@H](O)CC[C@]4(C)[C@H]3CC[C@]12C` [SPE_K45245728], the activation at 10 µM is -11.6%.
As for `CCC1(c2ncc[nH]2)Cc2ccccc2O1` (stereo not shown) [SPE_A38747044], the activation at 10 µM worked out at 2.93%.
Then `CC(=O)NC[C@H]1CN(c2ccc(N3CCN(C(=O)CO)CC3)c(F)c2)C(=O)O1` [SPE_K47554101], with -3.34%.
The figure for `O=C(NCc1ccc(F)cc1)N1CCN2C(=O)OC(c3ccccc3)(c3ccccc3)C2C1` (stereo not shown) [SPE_A63344375] is -2.64%; for `O=C(NC[C@H](O)CO)c1ccncc1Nc1ccc(I)cc1F` [SPE_K89014967] it is -12.6%; for `O=C(O)CC(S)C(=O)O` (stereo not shown) [SPE_A43435802] it is 5.6%.
The figure for `CCN(CC)Cc1ccc2cc(COC(=O)Nc3ccc(C(=O)NO)cc3)ccc2c1` [SPE_K13810148] is -13.8%; for `CC(C)CN(C[C@@H](O)[C@H](Cc1ccccc1)NC(=O)O[C@H]1CCOC1)S(=O)(=O)c1ccc(N)cc1` [SPE_K47827687] it is 0.458%.
On to `CC(C)Oc1ccc(-c2cnc3c(-c4ccnc5ccccc45)cnn3c2)cc1` [SPE_K39381259], for which the activation at 10 µM is -4.31%.
The figure for `CC1Cc2ccccc2N1NC(=O)c1ccc(Cl)c(S(N)(=O)=O)c1` (stereo not shown) [SPE_A95869247] is -11.5%; for `Fc1ccc(CN2CCC(Nc3ccc(C(F)(F)F)nn3)CC2)cc1F` [SPE_K31802667] it is 4.7%.
Then `Cc1[nH]nc(C(F)(F)F)c1Cc1sc2c(c1C(=O)N1C[C@](C)(O)CO1)c(=O)n(C)c(=O)n2C(C)C` [SPE_K25210703], with -5.25%.
With `Cn1ncnc1COc1nn2c(-c3cc(F)ccc3F)nnc2cc1C(C)(C)C` [SPE_K46647427], the activation at 10 µM is -14.8%.
For `CC(=O)N(OCc1ccccc1)[C@@H]1c2cc(C#N)ccc2OC(C)(C)[C@H]1O` [SPE_K42679050], the activation at 10 µM came out at 0.738%.
The figure for `CCN1C[C@H](C)n2c(c(O)c3c(=O)n(Cc4ccc(F)c(Cl)c4)nc(C(=O)NC)c32)C1=O` [SPE_K03128512] is 7.85%; for `Cn1cccc1/C=C1\C(=O)NC(=O)c2ccccc21` [SPE_K61665160] it is -5.42%; for `N#Cc1cnc2cnc(NCc3cccnc3)cc2c1Nc1ccc(F)c(Cl)c1` [SPE_K51776215] it is 4.19%.
The figure for `C[C@]12CC[C@H](O)C[C@H]1CC[C@@H]1[C@@H]2C[C@@H](O)[C@]2(C)[C@@H](C3=CC(=O)OC3)CC[C@]12O` [SPE_K18619710] is -13.9%; for `CCCCCCCCCCCCCCCCCC(=O)OCC(O)[C@H]1OC[C@H](O)[C@H]1O` (stereo partly shown) [SPE_A70197423] it is -4.54%.
With `CC1(C)CNc2cc(NC(=O)c3cccnc3NCc3ccncc3)ccc21` [SPE_K99616396], the activation at 10 µM was -4.48%.
As for `Cc1cc(OCC(=O)O)cc(C)c1Cc1ccc(O)c(C(C)C)c1` [SPE_K85406984], the activation at 10 µM is -18.6%.
The figure for `COc1cc(Oc2ccnc3cc(OC)c(OC)cc23)ccc1NC(=O)NC(C)c1nccs1` (stereo not shown) [SPE_A88787317] is -0.267%; for `CCOC(=O)c1ccccc1OC(N)=O` [SPE_K21892374] it is 3.89%; for `C=C(C)CN1CC[C@]23c4c5ccc(O)c4O[C@H]2c2[nH]c4ccccc4c2C[C@@]3(O)C1C5` [SPE_A75769826] it is 35%.
Consider `O=C(Oc1cc(S(=O)(=O)c2ccccc2)ccc1[N+](=O)[O-])c1ccc(Cl)cc1` [SPE_K37933329], for which the activation at 10 µM was -5.26%.
The figure for `CC(C)[C@@H](N)C(=O)O` [SPE_K59424860] is 0.189%; for `CC(C)C(=O)OC[C@H]1O[C@@H](n2ccc(N)nc2=O)[C@](C)(F)[C@@H]1OC(=O)C(C)C` [SPE_K69726595] it is -9.49%; for `COc1nccnc1NS(=O)(=O)c1ccc(N)cc1` [SPE_K17205817] it is -0.746%.
`COC(=O)C1=C(C)NC(C)=C(C(=O)OCC(C)C)C1c1ccccc1[N+](=O)[O-]` (stereo not shown) [SPE_A84465106]: the activation at 10 µM was 0.581%.
Regarding `CC(C)C[C@@H](C(=O)N[C@@H](Cc1ccc(OCc2ccccc2)cc1)C(=O)NC(C)(C)C)N(C)Cc1ccc(C(C)(C)C)cc1` [SPE_K04426574], the activation at 10 µM was -3.22%.
For `NC(=O)c1cccc2cn(-c3ccc([C@@H]4CCCNC4)cc3)nc12` [SPE_K54955827], the activation at 10 µM is -6.71%.
Consider `OC(CN1CCN(c2cccc(Cl)c2)CC1)C(c1ccccc1)c1ccccc1` (stereo not shown) [SPE_A51829654], for which the activation at 10 µM was -10.3%.
For `Cc1c(N)cccc1Cn1ccc(OCCc2cccs2)cc1=O` [SPE_K48888725], the activation at 10 µM is 1.09%.
The figure for `O=C(Nc1cccc(Cl)c1)c1ccccn1` [SPE_K66527818] is -8.01%.
